SMILES strings stand for the structures. Converted amounts (≈) assume the structure as drawn. A value given as a limit tells only on which side of the number the result lay.

The conditions of this data set: for aqueous solubility: pH 6.8.

For `Cc1ccc(-n2nc(NCc3cnn(C)c3)cc2C)cc1`, the MDR1-MDCK efflux ratio was found to be 0.727; the intrinsic clearance, human liver microsomes was at most 4.74 mL/min/kg; the intrinsic clearance, rat liver microsomes worked out at 70.4 mL/min/kg.

In the case of `O=C(NC1CCCC1)c1cc(C2CC2)nc2ccccc12`, the MDR1-MDCK efflux ratio came to 0.695; the intrinsic clearance, human liver microsomes is 61.9 mL/min/kg; the intrinsic clearance, rat liver microsomes was determined as 140 mL/min/kg; the aqueous solubility (in general, the concentration that dissolves in the medium under given conditions) is 18.6 µg/mL (≈ 66.3 µM).

Take `O=C([C@H]1CCCN(Cc2ccc(F)cc2)C1)N1CCc2ccccc2C1`: the MDR1-MDCK efflux ratio turned out to be 0.792; the intrinsic clearance, human liver microsomes stood at 336 mL/min/kg; the intrinsic clearance, rat liver microsomes is 3660 mL/min/kg; the aqueous solubility came out at 50 µg/mL (≈ 142 µM).

Turning to `O=C(Nc1nccs1)[C@@H]1C[C@@H]2CCCC[C@@H]2N1C(=O)c1ccccc1`, the MDR1-MDCK efflux ratio worked out at 6.31; the intrinsic clearance, human liver microsomes was found to be 36.7 mL/min/kg; the intrinsic clearance, rat liver microsomes amounted to 498 mL/min/kg.

Take `CCCCCCCCc1ccc(CC[C@](N)(CO)COP(=O)(O)O)cc1`: the intrinsic clearance, human liver microsomes came to 7.61 mL/min/kg.

In the case of `O=S(=O)(c1cccc2c(O)nccc12)N1CCCNCC1`, the MDR1-MDCK efflux ratio came out at 8.23; the fraction unbound, human plasma is 0.708; the fraction unbound, rat plasma was 0.979; the intrinsic clearance, human liver microsomes was at most 4.74 mL/min/kg. Besides, the intrinsic clearance, rat liver microsomes was determined as 191 mL/min/kg.

Take `O=C(Nc1cncc2ccccc12)c1ncccn1`: the MDR1-MDCK efflux ratio amounted to 0.676; the intrinsic clearance, human liver microsomes was 37.6 mL/min/kg; the intrinsic clearance, rat liver microsomes was found to be 14.3 mL/min/kg.

With `COc1cc2c(cc1NC(C)=O)oc1ccccc12`, the MDR1-MDCK efflux ratio stood at 0.379; the intrinsic clearance, human liver microsomes stood at 117 mL/min/kg; the intrinsic clearance, rat liver microsomes came to 63.7 mL/min/kg; the aqueous solubility was 34.4 µg/mL (≈ 135 µM).

As to `O=C(O)c1c(O)c(Cc2ccc(Cl)cc2)nc2c3c(ccc12)CCCC3`, the aqueous solubility was determined as 0.79 µg/mL (≈ 2.15 µM).

Consider `COc1ccc(-c2cccc(C3CCCN(CC(=O)Nc4ccccn4)C3)n2)cc1` (stereo not given), for which the MDR1-MDCK efflux ratio was determined as 0.833; the intrinsic clearance, human liver microsomes worked out at 131 mL/min/kg; the intrinsic clearance, rat liver microsomes worked out at 2220 mL/min/kg; the aqueous solubility turned out to be 8.1 µg/mL (≈ 20.1 µM).

On to `CC(C)NCC(O)COc1cccc2ccccc12` (stereo not given), for which the fraction unbound, rat plasma stood at 0.223.

The compound `COc1ncccc1CNc1c(C#N)cnc2c(C)cc(F)cc12` had an intrinsic clearance, human liver microsomes of 156 mL/min/kg and an intrinsic clearance, rat liver microsomes of 1250 mL/min/kg.

As to `Cc1csc(N(C(=O)c2ccc(-n3cncn3)c(F)c2)C2CC2)n1`, the MDR1-MDCK efflux ratio amounted to 0.63; the intrinsic clearance, human liver microsomes is 16.5 mL/min/kg; the intrinsic clearance, rat liver microsomes worked out at 215 mL/min/kg; the aqueous solubility worked out at 53.3 µg/mL (≈ 155 µM).

For `Cc1cc2nc(Sc3nnc(C)n3C)c3ccccc3n2n1`, the MDR1-MDCK efflux ratio came to 11.3; the intrinsic clearance, human liver microsomes was at most 4.74 mL/min/kg; the intrinsic clearance, rat liver microsomes amounted to 35 mL/min/kg.

As for `Cc1cc(C(=O)N2CCOC(C)(C)C2)cc(C)c1OCc1cccnc1`, the MDR1-MDCK efflux ratio came to 2.18; the intrinsic clearance, human liver microsomes worked out at 270 mL/min/kg; the intrinsic clearance, rat liver microsomes turned out to be 2180 mL/min/kg; the aqueous solubility worked out at 48.9 µg/mL (≈ 138 µM).

Regarding `O=C(CCN1C(=O)CCC1=O)Nc1cccc2ncccc12`, the MDR1-MDCK efflux ratio turned out to be 11.3; the intrinsic clearance, human liver microsomes is at most 4.74 mL/min/kg; the intrinsic clearance, rat liver microsomes is at most 10.7 mL/min/kg; the aqueous solubility came to 45.2 µg/mL (≈ 152 µM).

For `CSc1ccccc1S(=O)(=O)NC1CCC(CN(C)C)CC1` (stereo not given), the MDR1-MDCK efflux ratio was found to be 8.91; the intrinsic clearance, human liver microsomes is at most 4.74 mL/min/kg; the intrinsic clearance, rat liver microsomes was found to be 440 mL/min/kg.

The compound `Cc1cccc(C)c1NCc1noc(C2CC2)n1` returned an intrinsic clearance, human liver microsomes of 203 mL/min/kg and an intrinsic clearance, rat liver microsomes of 1540 mL/min/kg.

As for `COc1ccc(NC(=O)CN2CCCC2)cc1`, the intrinsic clearance, human liver microsomes is at most 4.74 mL/min/kg and the intrinsic clearance, rat liver microsomes came to 1850 mL/min/kg.

As to `CCCNS(=O)(=O)Nc1ncnc(OCCOc2ncc(Br)cn2)c1-c1ccc(Br)cc1`, the MDR1-MDCK efflux ratio was determined as 0.933; the intrinsic clearance, human liver microsomes turned out to be 101 mL/min/kg; the intrinsic clearance, rat liver microsomes was determined as 631 mL/min/kg.

`Cn1ncc2c(N3CCN(c4ccc(Cl)c(Cl)c4)CC3)ncnc21` gave an aqueous solubility of 0.13 µg/mL (≈ 0.358 µM).

In the case of `N#Cc1cccc(CN2CCOC[C@H](Oc3ccccc3)C2)c1`, the MDR1-MDCK efflux ratio came out at 0.507; the intrinsic clearance, human liver microsomes was found to be 128 mL/min/kg; the intrinsic clearance, rat liver microsomes was found to be 2020 mL/min/kg; the aqueous solubility amounted to 52.9 µg/mL (≈ 171 µM).

Regarding `Cc1cccc(NCC2CCN(C(=O)c3ccccc3)CC2)n1`, the MDR1-MDCK efflux ratio was determined as 1.18; the intrinsic clearance, human liver microsomes worked out at 13.2 mL/min/kg; the intrinsic clearance, rat liver microsomes is 1110 mL/min/kg; the aqueous solubility came to 28.5 µg/mL (≈ 92.1 µM).

For `Cc1nc2ccc(C(=O)NCCCc3ccc(F)cc3)cc2[nH]1`, the intrinsic clearance, human liver microsomes turned out to be 8.01 mL/min/kg; the intrinsic clearance, rat liver microsomes stood at 195 mL/min/kg; the aqueous solubility worked out at 47.9 µg/mL (≈ 154 µM).

Turning to `Cc1cc2occ(CC(=O)NC3CCN(C)CC3)c2cc1C(C)C`, the MDR1-MDCK efflux ratio was found to be 6.32; the intrinsic clearance, human liver microsomes amounted to 13.9 mL/min/kg; the intrinsic clearance, rat liver microsomes is 407 mL/min/kg; the aqueous solubility was found to be 34.4 µg/mL (≈ 105 µM).

With `O=C(c1n[nH]c2c1COCC2)N1CCC2(C=Cc3ccccc32)CC1`, the MDR1-MDCK efflux ratio worked out at 1.5; the intrinsic clearance, human liver microsomes was found to be 4.85 mL/min/kg; the intrinsic clearance, rat liver microsomes amounted to 870 mL/min/kg.

On to `Cc1nc(C(=O)NCC(=O)O)c(O)c2ccc(Oc3ccccc3)cc12`, for which the MDR1-MDCK efflux ratio was 1.23; the intrinsic clearance, human liver microsomes is at most 4.74 mL/min/kg; the intrinsic clearance, rat liver microsomes was at most 10.7 mL/min/kg.

Consider `Cc1c[nH]c(C(=O)NCC2(N3CCCCC3)CCCC2)n1`, for which the MDR1-MDCK efflux ratio was 20.3; the intrinsic clearance, human liver microsomes worked out at 7.62 mL/min/kg; the intrinsic clearance, rat liver microsomes was 191 mL/min/kg.

With `Oc1cncc(/C=C/c2nc(-c3ccncc3)no2)c1`, the intrinsic clearance, human liver microsomes stood at 31.8 mL/min/kg and the intrinsic clearance, rat liver microsomes is 239 mL/min/kg.

`c1csc(Cc2nc(-c3cnccn3)no2)c1` registered an intrinsic clearance, human liver microsomes of 10.8 mL/min/kg and an intrinsic clearance, rat liver microsomes of 80.8 mL/min/kg.

As to `COCCOc1cnc2ccn([C@H](C)c3nnc4c(F)cc(-c5cnn(C)c5)cn34)c(=O)c2c1`, the MDR1-MDCK efflux ratio was 126; the intrinsic clearance, human liver microsomes turned out to be 6.14 mL/min/kg; the intrinsic clearance, rat liver microsomes was 25.1 mL/min/kg.

In the case of `CCOC(=O)N1CCc2cc(NC(=O)c3oc(C)cc3C)ccc21`, the intrinsic clearance, human liver microsomes was determined as 11.5 mL/min/kg and the intrinsic clearance, rat liver microsomes stood at 118 mL/min/kg.

Turning to `CN(CC(=O)Nc1cccc(F)c1)C(=O)c1cccc(C#N)c1`, the MDR1-MDCK efflux ratio is 6.11; the intrinsic clearance, human liver microsomes was determined as 26.4 mL/min/kg; the intrinsic clearance, rat liver microsomes amounted to 131 mL/min/kg; the aqueous solubility was found to be 56.2 µg/mL (≈ 181 µM).

As for `Nc1cnn(CC(=O)N2CCCCC2)c1`, the intrinsic clearance, human liver microsomes is at most 4.74 mL/min/kg; the intrinsic clearance, rat liver microsomes is at most 10.7 mL/min/kg; the aqueous solubility amounted to 36.4 µg/mL (≈ 175 µM).

Take `O=C(CSc1nnc(-c2cccs2)[nH]1)N1CCCCCC1`: the MDR1-MDCK efflux ratio was 2.11; the intrinsic clearance, human liver microsomes amounted to 39.4 mL/min/kg; the intrinsic clearance, rat liver microsomes is 370 mL/min/kg; the aqueous solubility came to 27.6 µg/mL (≈ 85.6 µM).
